Reference: EP4467141A1, “PYRAZOLO-QUINOLINES AS SELECTIVE INHIBITORS OF GENOTOXIC STRESS-INDUCED IKK/NF- KB PATHWAYS FOR CANCER THERAPY” (Max-Delbrück-Centrum für Molekulare Medizin in der …, priority 2023, dated 2024)

What was measured:
Test in all cases: Kinase panel study
Format in all cases: biochemical
Conditions in all cases: read-out: Percentage of inhibition; for inhibition at 1 µM: 1000nM; for inhibition at 10 µM: 10000nM
GRK7 = target: T1, GRK7 (Homo sapiens, UniProt Q8WTQ7)
T1 construct: purchased Thermo Fisher Scientific
T1 sequence (Q8WTQ7 1-553): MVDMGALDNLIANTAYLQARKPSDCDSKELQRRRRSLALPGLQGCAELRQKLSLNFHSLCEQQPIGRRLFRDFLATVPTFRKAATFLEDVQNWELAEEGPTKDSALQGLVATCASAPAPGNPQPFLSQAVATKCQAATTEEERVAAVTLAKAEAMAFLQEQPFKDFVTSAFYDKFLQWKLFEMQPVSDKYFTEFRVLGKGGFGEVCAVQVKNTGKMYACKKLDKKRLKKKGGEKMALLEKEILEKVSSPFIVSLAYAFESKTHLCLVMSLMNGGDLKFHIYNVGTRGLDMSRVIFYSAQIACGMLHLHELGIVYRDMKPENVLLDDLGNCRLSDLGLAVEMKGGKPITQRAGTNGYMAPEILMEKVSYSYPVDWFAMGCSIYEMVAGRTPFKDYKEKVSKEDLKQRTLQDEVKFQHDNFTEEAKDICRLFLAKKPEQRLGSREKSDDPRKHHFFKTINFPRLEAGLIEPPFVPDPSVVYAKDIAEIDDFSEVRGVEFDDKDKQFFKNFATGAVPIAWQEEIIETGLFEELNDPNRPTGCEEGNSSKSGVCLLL
Procedure, shortened: (§1)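 A commercial kinase profiling service ran the assays according to its ZLyte or Adapta standard protocols. Compound was present at 10 µM or 1 µM, and kinase activity loss was expressed as percent inhibition.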

DAPK3 (ZIPK) = target: T2, DAPK3 (ZIPK) (Homo sapiens, UniProt O43293)
T2 construct: purchased Thermo Fisher Scientific
Procedure, shortened: as §1

MARK3 = target: T3, MARK3 (Homo sapiens, UniProt P27448)
T3 construct: purchased Thermo Fisher Scientific
Procedure, shortened: as §1

NEK1 = target: T4, NEK1 (Homo sapiens, UniProt Q96PY6)
T4 construct: purchased Thermo Fisher Scientific
T4 sequence (Q96PY6 1-1258): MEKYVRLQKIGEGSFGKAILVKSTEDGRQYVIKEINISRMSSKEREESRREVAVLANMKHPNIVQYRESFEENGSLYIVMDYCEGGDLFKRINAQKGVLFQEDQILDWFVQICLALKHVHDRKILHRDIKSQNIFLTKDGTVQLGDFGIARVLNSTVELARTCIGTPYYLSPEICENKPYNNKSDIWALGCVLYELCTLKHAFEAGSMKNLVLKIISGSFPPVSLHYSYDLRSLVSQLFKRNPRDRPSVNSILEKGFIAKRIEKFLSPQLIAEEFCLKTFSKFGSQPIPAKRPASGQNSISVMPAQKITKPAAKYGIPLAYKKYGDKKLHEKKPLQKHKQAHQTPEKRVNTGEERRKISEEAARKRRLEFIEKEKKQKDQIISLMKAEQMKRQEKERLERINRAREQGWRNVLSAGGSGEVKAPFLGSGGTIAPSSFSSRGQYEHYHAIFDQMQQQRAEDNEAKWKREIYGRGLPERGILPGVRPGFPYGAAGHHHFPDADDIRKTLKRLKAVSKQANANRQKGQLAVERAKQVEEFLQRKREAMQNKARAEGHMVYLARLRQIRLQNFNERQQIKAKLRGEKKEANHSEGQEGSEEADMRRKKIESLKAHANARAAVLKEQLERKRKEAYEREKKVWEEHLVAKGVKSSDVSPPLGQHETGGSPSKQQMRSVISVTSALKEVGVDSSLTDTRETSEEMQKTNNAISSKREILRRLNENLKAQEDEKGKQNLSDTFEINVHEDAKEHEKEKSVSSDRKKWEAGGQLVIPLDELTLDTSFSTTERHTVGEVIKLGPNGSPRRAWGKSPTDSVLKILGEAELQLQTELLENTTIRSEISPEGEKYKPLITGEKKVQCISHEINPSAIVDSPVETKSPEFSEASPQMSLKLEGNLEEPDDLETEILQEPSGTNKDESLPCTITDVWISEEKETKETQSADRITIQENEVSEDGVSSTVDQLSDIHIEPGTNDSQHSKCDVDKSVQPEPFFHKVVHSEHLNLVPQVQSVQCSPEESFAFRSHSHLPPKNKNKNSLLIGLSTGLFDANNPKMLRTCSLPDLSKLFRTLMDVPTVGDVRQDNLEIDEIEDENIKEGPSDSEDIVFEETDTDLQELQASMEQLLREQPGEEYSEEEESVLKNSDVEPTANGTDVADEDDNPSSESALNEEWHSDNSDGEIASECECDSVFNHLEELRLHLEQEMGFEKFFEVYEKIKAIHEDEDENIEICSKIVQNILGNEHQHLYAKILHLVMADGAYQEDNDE
Procedure, shortened: as §1

MAPK3 (ERK1) = target: T5, MAPK3 (ERK1) (Homo sapiens, UniProt P27361)
T5 construct: purchased Thermo Fisher Scientific
Procedure, shortened: as §1

SYK = target: T6, SYK (Homo sapiens, UniProt P43405)
T6 construct: purchased Thermo Fisher Scientific
Procedure, shortened: as §1

KDR (VEGFR2) = target: T7, KDR (VEGFR2) (Homo sapiens, UniProt P35968)
T7 construct: purchased Thermo Fisher Scientific
Procedure, shortened: as §1

T3 sequence (P27448 whole entry): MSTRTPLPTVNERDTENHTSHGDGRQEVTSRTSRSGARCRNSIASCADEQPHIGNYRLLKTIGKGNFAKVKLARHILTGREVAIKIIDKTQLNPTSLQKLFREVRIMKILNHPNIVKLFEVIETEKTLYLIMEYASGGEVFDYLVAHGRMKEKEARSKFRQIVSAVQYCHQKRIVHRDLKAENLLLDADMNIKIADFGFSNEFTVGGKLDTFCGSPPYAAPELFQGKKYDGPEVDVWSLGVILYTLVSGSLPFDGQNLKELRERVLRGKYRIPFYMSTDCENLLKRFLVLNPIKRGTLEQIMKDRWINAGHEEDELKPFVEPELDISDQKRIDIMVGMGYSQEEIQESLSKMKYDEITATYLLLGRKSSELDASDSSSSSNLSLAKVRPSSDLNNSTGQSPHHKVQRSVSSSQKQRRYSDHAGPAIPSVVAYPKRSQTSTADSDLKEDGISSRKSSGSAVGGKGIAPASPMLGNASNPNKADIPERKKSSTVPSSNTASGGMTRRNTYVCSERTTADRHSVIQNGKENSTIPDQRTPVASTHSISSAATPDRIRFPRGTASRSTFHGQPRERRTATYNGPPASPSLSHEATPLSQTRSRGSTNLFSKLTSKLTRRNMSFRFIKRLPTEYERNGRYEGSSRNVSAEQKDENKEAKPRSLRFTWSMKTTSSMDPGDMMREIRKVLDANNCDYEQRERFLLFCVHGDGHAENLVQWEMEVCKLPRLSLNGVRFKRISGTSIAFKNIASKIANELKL
T2 sequence (O43293 whole entry): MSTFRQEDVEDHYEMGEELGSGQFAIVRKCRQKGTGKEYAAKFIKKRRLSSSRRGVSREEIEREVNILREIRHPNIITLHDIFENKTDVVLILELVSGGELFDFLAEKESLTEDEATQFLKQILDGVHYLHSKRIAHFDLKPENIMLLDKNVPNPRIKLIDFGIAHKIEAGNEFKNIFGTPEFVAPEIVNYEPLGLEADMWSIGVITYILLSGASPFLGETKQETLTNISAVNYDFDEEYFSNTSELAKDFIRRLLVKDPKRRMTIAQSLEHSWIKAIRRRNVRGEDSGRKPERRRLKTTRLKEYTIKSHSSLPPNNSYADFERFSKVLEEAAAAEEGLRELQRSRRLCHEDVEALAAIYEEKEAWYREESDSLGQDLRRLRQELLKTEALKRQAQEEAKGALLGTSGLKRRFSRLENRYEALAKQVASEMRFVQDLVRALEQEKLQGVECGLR
T5 sequence (P27361 whole entry): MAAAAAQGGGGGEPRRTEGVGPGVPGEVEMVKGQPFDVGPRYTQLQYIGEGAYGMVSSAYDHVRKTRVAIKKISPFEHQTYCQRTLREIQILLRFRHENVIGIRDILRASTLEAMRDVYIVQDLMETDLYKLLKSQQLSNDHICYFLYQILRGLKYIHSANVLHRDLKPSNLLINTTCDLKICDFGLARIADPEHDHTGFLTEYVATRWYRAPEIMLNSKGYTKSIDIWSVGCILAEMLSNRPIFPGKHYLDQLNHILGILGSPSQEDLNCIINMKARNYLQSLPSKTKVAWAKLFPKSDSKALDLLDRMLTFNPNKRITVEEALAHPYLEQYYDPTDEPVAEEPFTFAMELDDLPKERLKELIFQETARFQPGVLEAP
T7 sequence (P35968 20-1356): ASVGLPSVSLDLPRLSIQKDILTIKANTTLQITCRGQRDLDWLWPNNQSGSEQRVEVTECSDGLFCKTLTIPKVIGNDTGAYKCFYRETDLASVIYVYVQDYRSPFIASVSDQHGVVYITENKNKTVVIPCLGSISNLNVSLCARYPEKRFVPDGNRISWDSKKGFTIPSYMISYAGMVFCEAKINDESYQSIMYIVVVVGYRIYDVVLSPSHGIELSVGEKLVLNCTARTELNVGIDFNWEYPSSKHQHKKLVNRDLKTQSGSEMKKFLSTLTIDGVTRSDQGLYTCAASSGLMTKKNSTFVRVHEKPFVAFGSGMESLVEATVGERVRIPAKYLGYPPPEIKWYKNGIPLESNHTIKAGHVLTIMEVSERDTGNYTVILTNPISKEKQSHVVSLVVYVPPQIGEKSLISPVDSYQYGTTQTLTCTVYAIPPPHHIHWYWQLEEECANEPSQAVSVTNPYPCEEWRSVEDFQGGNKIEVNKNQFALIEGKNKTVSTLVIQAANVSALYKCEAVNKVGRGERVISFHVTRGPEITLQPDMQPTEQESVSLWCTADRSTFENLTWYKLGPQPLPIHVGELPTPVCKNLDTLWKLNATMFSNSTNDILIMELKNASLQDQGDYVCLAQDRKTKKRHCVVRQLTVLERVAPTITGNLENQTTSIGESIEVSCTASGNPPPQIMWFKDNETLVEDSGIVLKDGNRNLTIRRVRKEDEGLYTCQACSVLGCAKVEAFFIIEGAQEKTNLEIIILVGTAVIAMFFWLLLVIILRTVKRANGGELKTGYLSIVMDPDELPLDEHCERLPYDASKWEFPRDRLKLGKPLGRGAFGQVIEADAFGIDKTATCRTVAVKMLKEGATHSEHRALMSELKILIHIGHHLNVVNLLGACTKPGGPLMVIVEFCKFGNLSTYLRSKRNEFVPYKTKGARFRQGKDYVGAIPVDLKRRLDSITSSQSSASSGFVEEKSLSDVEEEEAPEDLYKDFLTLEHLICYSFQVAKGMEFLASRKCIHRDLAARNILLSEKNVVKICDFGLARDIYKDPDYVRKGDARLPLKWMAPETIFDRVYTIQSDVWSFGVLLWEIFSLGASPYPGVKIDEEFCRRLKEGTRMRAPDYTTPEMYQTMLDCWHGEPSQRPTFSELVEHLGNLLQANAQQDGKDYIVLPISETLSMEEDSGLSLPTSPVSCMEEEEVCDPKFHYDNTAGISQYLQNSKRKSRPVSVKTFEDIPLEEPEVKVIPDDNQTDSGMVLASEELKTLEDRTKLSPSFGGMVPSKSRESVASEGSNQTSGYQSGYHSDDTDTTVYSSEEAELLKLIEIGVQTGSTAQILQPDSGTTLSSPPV

| SMILES | inhibition at 1 µM (GRK7) | inhibition at 10 µM (GRK7) | inhibition at 1 µM (DAPK3 (ZIPK)) | inhibition at 10 µM (DAPK3 (ZIPK)) | inhibition at 1 µM (MARK3) | inhibition at 10 µM (MARK3) | inhibition at 1 µM (NEK1) | inhibition at 10 µM (NEK1) | inhibition at 1 µM (MAPK3 (ERK1)) | inhibition at 10 µM (MAPK3 (ERK1)) | inhibition at 1 µM (SYK) | inhibition at 10 µM (SYK) | inhibition at 1 µM (KDR (VEGFR2)) | inhibition at 10 µM (KDR (VEGFR2)) |
| --- | --- | --- | --- | --- | --- | --- | --- | --- | --- | --- | --- | --- | --- | --- |
| COc1ccc2c(c1OC)c(=O)n1c3ccc(O)cc3c3ccnc2c31 [MW01, 5-Hydroxy-10,11-dimethoxy-9H-benzo[c]indolo[3,2,1-ij][1,5]naphthyridin-9-one] | -2% | 0% | 2% | 9% | 0% | 7% | 23% | 58% | 14% | 4% | 16% | 37% | 24% | 54% |
| COc1ccc2cc3c(N)nn(C(=O)c4cccc(N(C)C)c4)c3nc2c1 [MW05, (3-Amino-7-methoxypyrazolo[3,4-b]quinolin-1-yl)-[3-(dimethylamino)phenyl]methanone] | -2% | 5% | 2% | -3% | 3% | -5% | -1% | 6% | 14% | 11% | 5% | 7% | 7% | -15% |
